These results are taken from the supplement of paper PMC10307832.

What all share (assay): relative viability (nuclei count vs DMSO), 5 days (fraction); higher = more cells survive
Compound in the test “MK-8033 + Phenformin”: Cn1cc(-c2cnc3ccc4ccc(CS(=O)(=O)NCc5ccccn5)cc4c(=O)c3c2)cn1 [MK-8033] + N=C(N)NC(=N)NCCc1ccccc1 [Phenformin] (partner 250 µM)
In short, it runs like this: (§1)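 Lung cancer cell lines, seeded in 1536-well plates, were treated the following day by pin tool with a single drug or with five library-drug doses (not always all listed) in √10 steps on top of a fixed anchor-drug dose. Cells were fixed and nuclei stained in one step after 5 days, and nuclei were counted. Relative viability is the nuclei count for treated wells divided by that for vehicle wells, reported as medians of duplicate plates.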

Compound in the test “MK-8033 + Navitoclax”: Cn1cc(-c2cnc3ccc4ccc(CS(=O)(=O)NCc5ccccn5)cc4c(=O)c3c2)cn1 [MK-8033] + CC1(C)CCC(c2ccc(Cl)cc2)=C(CN2CCN(c3ccc(C(=O)NS(=O)(=O)c4ccc(N[C@H](CCN5CCOCC5)CSc5ccccc5)c(S(=O)(=O)C(F)(F)F)c4)cc3)CC2)C1 [Navitoclax] (partner 0.5 µM)
An outline of the steps: as §1

Compound in the test “RU-SKI 43 + Trametinib”: CC[C@@H](C)CNCC(=O)N1CCC2=C([C@@H]1COC3=CC=CC(=C3)C)C=CS2 [RU-SKI 43] + CC(=O)Nc1cccc(-n2c(=O)n(C3CC3)c(=O)c3c(Nc4ccc(I)cc4F)n(C)c(=O)c(C)c32)c1 [Trametinib] (partner 0.02 µM)
An outline of the steps: as §1

Compound in the test “MK-8033 + Olaparib”: Cn1cc(-c2cnc3ccc4ccc(CS(=O)(=O)NCc5ccccn5)cc4c(=O)c3c2)cn1 [MK-8033] + O=C(c1cc(Cc2n[nH]c(=O)c3ccccc23)ccc1F)N1CCN(C(=O)C2CC2)CC1 [Olaparib] (partner 8 µM)
In short, it runs like this:
as §1

In the case of RERF-LC-KJ, the relative viability with MK-8033 + Phenformin (first compound 0.02 µM) was determined as 0.406; in the test with MK-8033 + Phenformin (first compound 0.06325 µM) it was 0.368; with MK-8033 + Phenformin (first compound 0.2 µM) it was 0.431; with MK-8033 + Phenformin (first compound 0.6325 µM), 0.434; with MK-8033 + Phenformin (first compound 2 µM), 0.364; in the test with MK-8033 + Navitoclax (first compound 0.02 µM) it was 0.972. In addition, the relative viability with MK-8033 + Navitoclax (first compound 0.06325 µM) amounted to 0.867; with MK-8033 + Navitoclax (first compound 0.2 µM), 0.756; in the test with MK-8033 + Navitoclax (first compound 0.6325 µM) it was 0.844; with MK-8033 + Navitoclax (first compound 2 µM), 0.882; in the test with RU-SKI 43 + Trametinib (first compound 0.1 µM), 0.846; with RU-SKI 43 + Trametinib (first compound 0.3162 µM) it was 0.84. Also, the relative viability was 0.914 with RU-SKI 43 + Trametinib (first compound 1 µM); 0.85 in the test with RU-SKI 43 + Trametinib (first compound 3.162 µM); 0.768 in the test with RU-SKI 43 + Trametinib (first compound 10 µM); 1.03 in the test with MK-8033 + Olaparib (first compound 0.02 µM); 0.973 with MK-8033 + Olaparib (first compound 0.06325 µM); 0.884 with MK-8033 + Olaparib (first compound 0.2 µM). The relative viability was found to be 0.899 with MK-8033 + Olaparib (first compound 0.6325 µM) and 0.882 with MK-8033 + Olaparib (first compound 2 µM).
Regarding SK-LU-1, the relative viability with MK-8033 + Phenformin (first compound 0.02 µM) is 0.519; with MK-8033 + Phenformin (first compound 0.06325 µM), 0.505; with MK-8033 + Phenformin (first compound 0.2 µM), 0.518; with MK-8033 + Phenformin (first compound 0.6325 µM) it was 0.497; with MK-8033 + Phenformin (first compound 2 µM), 0.53; in the test with MK-8033 + Navitoclax (first compound 0.02 µM), 0.808. The relative viability with MK-8033 + Navitoclax (first compound 0.06325 µM) was determined as 0.798; with MK-8033 + Navitoclax (first compound 0.2 µM) it was 0.792; in the test with MK-8033 + Navitoclax (first compound 0.6325 µM), 0.919; with MK-8033 + Navitoclax (first compound 2 µM) it was 0.807; with RU-SKI 43 + Trametinib (first compound 0.1 µM), 0.43; with RU-SKI 43 + Trametinib (first compound 0.3162 µM), 0.495. For the same cell line, the relative viability in the test with RU-SKI 43 + Trametinib (first compound 1 µM) amounted to 0.492; in the test with RU-SKI 43 + Trametinib (first compound 3.162 µM), 0.49; with RU-SKI 43 + Trametinib (first compound 10 µM), 0.385; with MK-8033 + Olaparib (first compound 0.02 µM), 0.435; in the test with MK-8033 + Olaparib (first compound 0.06325 µM), 0.471; in the test with MK-8033 + Olaparib (first compound 0.2 µM) it was 0.426. In addition, the relative viability in the test with MK-8033 + Olaparib (first compound 0.6325 µM) was 0.497; with MK-8033 + Olaparib (first compound 2 µM), 0.394.
Turning to SK-MES-1, the relative viability worked out at 0.67 with MK-8033 + Phenformin (first compound 0.02 µM); 0.622 with MK-8033 + Phenformin (first compound 0.06325 µM); 0.634 with MK-8033 + Phenformin (first compound 0.2 µM); 0.719 with MK-8033 + Phenformin (first compound 0.6325 µM); 0.671 with MK-8033 + Phenformin (first compound 2 µM); 1.23 with MK-8033 + Navitoclax (first compound 0.02 µM). The relative viability with MK-8033 + Navitoclax (first compound 0.06325 µM) came to 1.16; with MK-8033 + Navitoclax (first compound 0.2 µM), 1.16; in the test with MK-8033 + Navitoclax (first compound 0.6325 µM), 1.23; with MK-8033 + Navitoclax (first compound 2 µM), 1.18; with RU-SKI 43 + Trametinib (first compound 0.1 µM), 0.482; with RU-SKI 43 + Trametinib (first compound 0.3162 µM) it was 0.597. Besides, the relative viability with RU-SKI 43 + Trametinib (first compound 1 µM) amounted to 0.522; with RU-SKI 43 + Trametinib (first compound 3.162 µM), 0.52; with RU-SKI 43 + Trametinib (first compound 10 µM) it was 0.474; with MK-8033 + Olaparib (first compound 0.02 µM), 0.682; in the test with MK-8033 + Olaparib (first compound 0.06325 µM), 0.658; with MK-8033 + Olaparib (first compound 0.2 µM) it was 0.677. For the same cell line, the relative viability with MK-8033 + Olaparib (first compound 0.6325 µM) was 0.76; with MK-8033 + Olaparib (first compound 2 µM), 0.717.
Regarding SW 1573, the relative viability with MK-8033 + Phenformin (first compound 0.02 µM) is 0.374; in the test with MK-8033 + Phenformin (first compound 0.06325 µM) it was 0.311; in the test with MK-8033 + Phenformin (first compound 0.2 µM) it was 0.367; with MK-8033 + Phenformin (first compound 0.6325 µM), 0.326; in the test with MK-8033 + Phenformin (first compound 2 µM) it was 0.249; in the test with MK-8033 + Navitoclax (first compound 0.02 µM), 0.721. The relative viability in the test with MK-8033 + Navitoclax (first compound 0.2 µM) was 0.991; in the test with MK-8033 + Navitoclax (first compound 0.6325 µM) it was 0.884; with MK-8033 + Navitoclax (first compound 2 µM), 0.95; in the test with RU-SKI 43 + Trametinib (first compound 0.1 µM), 0.586; with RU-SKI 43 + Trametinib (first compound 0.3162 µM), 0.591; with RU-SKI 43 + Trametinib (first compound 1 µM) it was 0.584. In addition, the relative viability turned out to be 0.567 with RU-SKI 43 + Trametinib (first compound 3.162 µM); 0.39 with RU-SKI 43 + Trametinib (first compound 10 µM); 0.537 with MK-8033 + Olaparib (first compound 0.02 µM); 0.479 in the test with MK-8033 + Olaparib (first compound 0.06325 µM); 0.418 with MK-8033 + Olaparib (first compound 0.2 µM); 0.567 with MK-8033 + Olaparib (first compound 0.6325 µM). The relative viability with MK-8033 + Olaparib (first compound 2 µM) is 0.393.
